Converted amounts (≈) assume the structure as drawn. Where two headings read alike, the source gives them in different places. Some results are limits rather than exact numbers.

Consider 1 molecule from article PMC3006138, “Fexinidazole – A New Oral Nitroimidazole Drug Candidate Entering Clinical Development for the Treatment of Sleeping Sickness” (PLoS Neglected Tropical Diseases, 2010).

Series [1] deals with T. b. gambiense clinical isolates. Kind of series: In vitro trypanocidal assay, clinical isolates. Type of series: cell-based. The note with it: Trypanosoma brucei, six recent clinical isolates, data not shown. On the procedure: Parasites were cultured with or without the test article at a concentration of 3×10^4/mL in Minimal Essential Medium, according to Baltz et al., with the following modifications: 0.2 mM 2-mercaptoethanol, 1 mM Na-pyruvate, 0.5 mM hypoxanthine and 15% heat inactivated horse serum at 37°C in 5% CO2 in 96-well microtitre plates for 72 h. 10 µL of Alamar Blue was added for the final 3 h to determine viability. The assay was assessed by reading the fluorescence in each well at an excitation wavelength of 536 nm and at an emission wavelength of 588 nm. The IC50 values were calculated from the sigmoidal inhibition curves. For cytotoxicity, 4×10^4/mL L-6 rat skeletal myoblast cells were used, and incubations and assessments carried out as above.

The subject of series [2] is bone marrow polychromatic erythrocytes. Kind of series: In vivo bone marrow micronucleus test. Set-up: species or system mouse. On the procedure:
Groups of six young adult male Crl:CD-1 (ICR) mice were treated with fexinidazole at two oral doses of 0, 500, 1000, or 2000 mg/kg given 24 h apart, and bone marrows were harvested 24 h after the second dose. Slides of bone marrow cells were prepared, Giemsa stained, and 2000 polychromatic erythrocytes per animal were scored for micronuclei.

The nature of series [3]: Hepatocyte intrinsic clearance and metabolite profile. Type of series: in vitro ADME, human. The conditions noted are these: human, cryopreserved pooled hepatocytes, 1 µM. The procedure:
(§1) Fexinidazole was incubated with cryopreserved hepatocytes from male CD-1 mice, male Sprague Dawley rats, male beagle dogs, male cynomolgus monkeys, and from pooled white or African-American human donor samples (purchased commercially), at concentrations of 1 µM and 10 µM. […] The incubated samples were analyzed by LC-MS after extraction into acetonitrile.
(§2) A quality control analysis of fexinidazole was performed via 1H-NMR in DMSO and LC- […]
(§3) provided by the Swiss Tropical Institute (Basel, Switzerland).
(§4) Reagents and solvents were of analytical grade and obtained from Sigma-Aldrich (St. Louis, […]
(§5) Cryopreserved hepatocytes from the male CD1 mouse, lot CSI; male Sprague Dawley rat, lot LPL; male beagle dog, lot BWX; male cynomolgus monkey, lot EHH; and pooled human samples, lot MJI, were purchased from In Vitro Technologies Inc (Baltimore, Maryland, […]
(§6) 5.4. In vitro Incubations
(§7) On the day of the experiment a 10 mM stock solution of fexinidazole in DMSO was prepared and, within 3 hours, aliquots of this freshly prepared solution, after suitable dilution, were added to the incubation matrix, to reach fexinidazole final concentrations of 1 and 10 µM. The final percentage of DMSO was 0.01% in the incubation samples for the […]
(§8) On the day of experiment, the cryopreserved hepatocytes were thawed following the detailed instructions provided by the supplier.
(§9) The number of viable cells was determined using a Trypan Blue exclusion method.
(§10) 5.4.1. Intrinsic Clearance Study […]
(§11) µM with mouse, rat, dog, monkey and human hepatocytes (300000 cells/mL for the mouse and 1 million cells/mL for the other species) in a final incubation volume of 0.75 mL […]
(§12) Incubations were performed in duplicate in a 48-well plate under shaking. Sampling was performed using an automatic liquid handling system (Multiprobe II EX, Packard). At 0, 1, 5, 10, 15, 20, 30, 60 and 120 minutes, 50 µL aliquots of the incubates were taken, then 80 µL of ice-cold acetonitrile and 20 µL of 1 µM warfarin in acetonitrile (internal standard) were added, and samples centrifuged at 2000 rpm for 20 min. The supernatant was analyzed by LC-MS/MS. […]
(§13) the medium alone at t = 0 and 120 minutes.
(§14) For the determination of phase I and phase II activity of hepatocytes, 7-ethoxycoumarin (7-EC) 1 µM, and 7-hydroxycoumarin (7-HC) 30 µM were used as positive controls and incubated under the same conditions as fexinidazole. Aliquots of incubates were taken at 0, 10, 20, 30, 60 and 120 minutes and processed as fexinidazole samples.
(§15) 5.4.2. Metabolite Profile Study
(§16) For metabolite profiling, fexinidazole was incubated at a concentration of 10 µM with mouse, rat, dog, monkey and human hepatocytes (300000 cells/mL for the mouse and 1 million cells/mL for the other species) in a final incubation volume of 2 mL Leibovitz L-15 […]
(§17) Aliquots of the incubation samples were taken at t = 0, 30 and 120 minutes; the metabolism was stopped by the addition of an equal volume of cold acetonitrile and the samples centrifuged at 1500 rpm for 20 min. The supernatant was stored at -20°C until analysis. Control incubations were performed with the compound in the medium alone […]
(§18) 5.5. Analysis of Samples for Intrinsic Clearance Determination
(§19) The analysis of the samples for intrinsic clearance determination was performed by an LC-MS/MS method, using the following conditions:
(§20) HPLC Equipment and Conditions
(§21) HPLC system Agilent 1100 binary pump (Agilent, Palo Alto, USA)
(§22) Autosampler CTC Pal (Alfatech, San Jose, USA)
(§23) Analytical column Guard Column SB-C8 4.6 x 12.5 mm, 5 µm (Zorbax)
(§24) Column temperature ambient
(§25) Mobile phase A 10 mM ammonium formate pH 4.0: acetonitrile (95:5, v:v)
(§26) Mobile phase B 10 mM ammonium formate pH 4.0: acetonitrile (5:95, v:v) […]
(§27) Gradient conditions Step Total time (min) flow (µL/min) %A % B […]
(§28) MS Equipment and Conditions
(§29) Mass spectrometer API 4000 Triple Quadrupole (MDS-Sciex, Toronto, […]
(§30) Source Turbo Ion Spray (TIS)
(§31) Ion mode Positive for fexinidazole and 7-EC.
(§32) Negative for 7-HC, 7-HC sulphate and 7-HC glucuronide.

Details of series [4]: method as in ref 2 (report no. 0259-2007-R). The conditions noted are these: oral, normalized to 1 mg/kg, previous rat study, ref 2 (report no. 0259-2007-R); cited from earlier work.
Series [5] is described as follows: Hepatocyte intrinsic clearance and metabolite profile. Type of series: in vitro ADME, mouse. The note with it: male, CD-1, mouse, cryopreserved hepatocytes, 1 µM. On the procedure: as §1, §2, §3, §4, §5, §6, §7, §8, §9, §10, §11, §12, §13, §14, §15, §16, §17, §18, §19, §20, §21, §22, §23, §24, §25, §26, §27, §28, §29, §30, §31, §32

With `CSc1ccc(OCc2ncc([N+](=O)[O-])n2C)cc1` [Fexinidazole, 1-methyl-2-((p-(methylthio)phenoxy)methyl)-5-nitroimidazole], the IC50 (in general, the point on the concentration scale where inhibition reaches its midpoint) in series [1] lay in the range of 0.3 to 0.93 µg/mL (≈ 1.07 to 3.33 µM). In addition, the “Micronucleated PCE/1000” value was determined as 1.4 in series [2] (500 mg/kg po ×2), 1.1 in series [2] (1000 mg/kg po ×2) and 1.8 in series [2] (2000 mg/kg po ×2). For the same molecule, the PCE/NCE in series [2] (500 mg/kg po ×2) came to 0.82; in series [2] (1000 mg/kg po ×2), 0.75; in series [2] (2000 mg/kg po ×2), 0.89. Moreover, in series [2] (oral doses up to 2 g/kg), the “in vivo micronucleus test result” value is “confirmed the lack of clastogenicity”. Moreover, the half-life (in general, the time needed for the level to fall by half in the phase considered) at 1 µM in series [3] stood at 13 min; in series [5], 1.4 min. Moreover, the CLint scaled at 1 µM in series [3] (read-out: CLint in vitro) is 124 mL/min/kg; in series [5] (read-out: CLint in vitro) it was over 3000 mL/min/kg. The hepatocyte CLint at 1 µM in series [3] (read-out: CLint in vitro) stood at 51.9 µL/min/1e6 cells; in series [5] (read-out: CLint in vitro), 1630 µL/min/1e6 cells. Moreover, the “AUC0-∞, norm” value in series [4] is reported as 45 ng⋅h/mL.
